Patent US20240067637A1, “NAPHTHYRIDINE AND PYRIDO[3,4-c]PYRIDAZINE DERIVATIVES AS GABAA ALPHA 5 RECEPTOR MODULATORS” (Richter Gedeon Nyrt., priority 2020, published 2024)

Biological target: human recombinant GABAA α5β3γ2 receptor (Homo sapiens (Human), UniProt P18507+P31644)
Test: Radioligand ([3H]Ro151788) receptor binding assay
Conditions: membranes of HEK cells expressing human recombinant GABAA α5β3γ2; 0.5 nM [3H]Ro151788; 60 minutes at 4° C.; read-out: hGABAA α5 Ki
Procedure: The GABAA α5β3γ2 protein used for the receptor binding assay was derived from membranes produced from HEK cells (Millipore CYL3073) expressing the human recombinant GABAA α5β3γ2 receptor. Cells were stored and cultured in-house according to the instructions provided by the vendor (Millipore). Cell pellet was homogenized in 10 times modified Krebs Henseleit buffer (membrane preparation buffer): 20 mM Tris, 120 mM NaCl, 100 mM KCl, 25 mM CaCl2 and 25 mM MgCl2 pH=7.4 at 4° C. using Ultra Turrax (Janke&Kunkel) maximal speed for 15 seconds. The homogenate was centrifuged at 40,000 g for 30 minutes at 4° C. Supernatant was discarded and the resulting pellet was washed in membrane preparation buffer. Pellet was resuspended in membrane preparation buffer and aliquots of 1.4 mL ampules were stored at −70° C. until use.
Receptor binding assays were performed in 96-well format in deep-well plates. For each 96-well plate one ampule of membrane homogenate was thawed and diluted in binding buffer (50 mM Tris pH=7.4, 100 mM KCl) and 200 μL was dispensed into each well. Radioligand [^3H]Ro151788 (Perkin Elmer: NET757250UC) was prepared in binding buffer and added to each well in 50 μL volume to give final concentration of 0.5 nM. Test compounds in suitable concentration(s) were added in additional 50 μL. The final assay volume was 300 μL. Incubation was carried out for 60 minutes at 4° C. For non-specific binding 10 μM unlabeled diazepam was used. After incubation samples were filtered over UniFilter® GF/BT using Filtermate Harvester (Perkin Elmer) and washed with 5×1 mL binding buffer. The plate was dried at 40° C. for an hour and 40 μL Microscint (Perkin Elmer) scintillation cocktail was added to each well. The plate was read in Microbeta (Perkin Elmer).
The specific radioligand binding (SB) was defined as the difference between total binding (Tot) and the non-specific binding (NSB). Results are expressed as a percent inhibition of specific binding obtained in the presence of compound of interest.
For IC50 and Ki determination a minimum of six drug concentrations in triplicate were used. IC50 values (i.e. concentration of compound giving 50% inhibition of specific binding) were calculated from concentration-displacement curves by sigmoidal fitting using Origin 7.5 software. Ki values (i.e. inhibition constants) were calculated using the Cheng-Prusoff equation Ki=IC50/[1+(L/KD)], where [L] is the radioligand concentration and KD the affinity of the labelled ligand for receptor. KD was determined from the Saturation analyses.

Sequence of human recombinant GABAA α5β3γ2 receptor (P31644 32-462): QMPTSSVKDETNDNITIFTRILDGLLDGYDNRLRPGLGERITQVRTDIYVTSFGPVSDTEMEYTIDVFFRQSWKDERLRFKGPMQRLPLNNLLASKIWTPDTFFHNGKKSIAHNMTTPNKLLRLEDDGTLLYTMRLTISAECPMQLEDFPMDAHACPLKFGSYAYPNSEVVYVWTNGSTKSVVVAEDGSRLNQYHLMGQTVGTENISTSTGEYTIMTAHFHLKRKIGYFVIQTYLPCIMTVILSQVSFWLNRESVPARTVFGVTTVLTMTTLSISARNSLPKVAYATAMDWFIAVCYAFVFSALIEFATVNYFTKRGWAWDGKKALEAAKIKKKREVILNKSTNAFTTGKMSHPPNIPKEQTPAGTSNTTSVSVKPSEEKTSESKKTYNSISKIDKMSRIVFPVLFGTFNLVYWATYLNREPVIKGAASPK
Sequence of human recombinant GABAA α5β3γ2 receptor (P28472 26-473 partner): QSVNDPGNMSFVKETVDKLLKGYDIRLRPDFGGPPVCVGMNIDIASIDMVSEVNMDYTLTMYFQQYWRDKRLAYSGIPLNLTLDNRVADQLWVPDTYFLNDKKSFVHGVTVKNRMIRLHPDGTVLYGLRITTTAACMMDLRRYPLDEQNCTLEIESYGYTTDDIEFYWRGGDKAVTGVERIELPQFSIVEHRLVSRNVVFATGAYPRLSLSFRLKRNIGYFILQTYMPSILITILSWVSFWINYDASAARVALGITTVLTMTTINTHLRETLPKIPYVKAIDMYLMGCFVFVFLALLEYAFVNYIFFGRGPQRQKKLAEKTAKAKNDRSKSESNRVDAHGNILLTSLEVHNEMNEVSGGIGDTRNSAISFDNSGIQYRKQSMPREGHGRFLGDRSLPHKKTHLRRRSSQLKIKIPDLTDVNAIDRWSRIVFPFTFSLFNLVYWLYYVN
Sequence of human recombinant GABAA α5β3γ2 receptor (P18507 40-475): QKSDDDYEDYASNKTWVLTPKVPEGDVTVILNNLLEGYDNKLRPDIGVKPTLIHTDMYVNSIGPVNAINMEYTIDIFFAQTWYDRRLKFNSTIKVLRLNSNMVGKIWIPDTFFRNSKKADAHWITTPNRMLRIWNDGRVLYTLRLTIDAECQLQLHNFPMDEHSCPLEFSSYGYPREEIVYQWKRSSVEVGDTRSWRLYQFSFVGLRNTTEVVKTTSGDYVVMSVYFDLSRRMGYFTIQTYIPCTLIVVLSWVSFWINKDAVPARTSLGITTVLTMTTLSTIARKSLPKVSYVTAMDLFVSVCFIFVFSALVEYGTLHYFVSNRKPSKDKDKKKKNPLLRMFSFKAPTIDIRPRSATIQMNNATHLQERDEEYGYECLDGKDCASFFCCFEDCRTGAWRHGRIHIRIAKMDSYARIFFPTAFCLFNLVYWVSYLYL

Compound | Ki [nM]
CC(=O)N1CCc2cc(OCc3c(-c4ccc(C(F)(F)F)nc4)noc3C)nnc2C1 [Example 34, 1-[3-({5-methyl-3-[6-(trifluoromethyl)pyridin-3-yl]-1,2-oxazol-4-yl}methoxy)-5H,6H,7H,8H-pyrido[3,4-c]pyridazin-7-yl]ethan-1-one] | 8.1
Cc1ccc(-c2noc(C)c2COc2cc3c(cn2)CN(C(=O)C2CCOCC2)CC3)cn1 [Example 10, 6-{[5-methyl-3-(6-methylpyridin-3-yl)-1,2-oxazol-4-yl]methoxy}-2-(oxane-4-carbonyl)-1,2,3,4-tetrahydro-2,7-naphthyridine] | 17
CC(=O)N1CCc2cc(OCc3c(-c4ccc(C(F)(F)F)nc4)noc3C)ncc2C1 [Example 4, 1-[6-({5-methyl-3-[6-(trifluoromethyl)pyridin-3-yl]-1,2-oxazol-4-yl}methoxy)-3,4-dihydro-2,7-naphthyridin-2(1H)-yl]ethanone] | 9.7
Cc1nnn(-c2ccc(C(F)(F)F)nc2)c1COc1cc2c(cn1)CN(C(=O)C1CC1)CC2 [Example 51, 2-cyclopropanecarbonyl-6-({4-methyl-1-[6-(trifluoromethyl)pyridin-3-yl]-1H-1,2,3-triazol-5-yl}methoxy)-1,2,3,4-tetrahydro-2,7-naphthyridine] | 31
Cc1ccc(-c2nnn(C)c2COc2cc3c(cn2)CN(C(=O)C(C)C)CC3)cn1 [Example 63, 2-methyl-1-(6-{[1-methyl-4-(6-methylpyridin-3-yl)-1H-1,2,3-triazol-5-yl]methoxy}-1,2,3,4-tetrahydro-2,7-naphthyridin-2-yl)propan-1-one] | 43
Cc1ccc(-c2noc(C)c2COc2cc3c(nn2)CN(C(=O)C2CCOCC2)CC3)cn1 [Example 27, 2-methyl-5-[5-methyl-4-({[7-(oxane-4-carbonyl)-5H,6H,7H,8H-pyrido[3,4-c]pyridazin-3-yl]oxy}methyl)-1,2-oxazol-3-yl]pyridine] | 10
Cc1ccc(-c2noc(C)c2COc2cc3c(nn2)CN(C(=O)N2CCOCC2)CC3)cn1 [Example 26, 4-(3-{[5-methyl-3-(6-methylpyridin-3-yl)-1,2-oxazol-4-yl]methoxy}-5H,6H,7H,8H-pyrido[3,4-c]pyridazine-7-carbonyl)morpholine] | 13
Cc1ccc(-c2noc(C)c2COc2cc3c(cn2)CN(C(=O)C2CCS(=O)(=O)CC2)CC3)cn1 [Example 8, 4-(6-{[5-methyl-3-(6-methylpyridin-3-yl)-1,2-oxazol-4-yl]methoxy}-1,2,3,4-tetrahydro-2,7-naphthyridine-2-carbonyl)-1lambda6-thiane-1,1-dione] | 16

The next compounds have a lower Ki than those just listed; values first:

Ki [nM] | Compound
6 | CCC(=O)N1CCc2cc(OCc3c(-c4ccc(C)nc4)noc3C)nnc2C1 [Example 29, 1-(3-{[5-methyl-3-(6-methylpyridin-3-yl)-1,2-oxazol-4-yl]methoxy}-5H,6H,7H,8H-pyrido[3,4-c]pyridazin-7-yl)propan-1-one]
5.7 | Cc1ccc(-c2noc(C)c2COc2cc3c(cn2)CN(C(=O)[C@H]2CCC(=O)N2C)CC3)cn1 [Example 21, (5R)-1-methyl-5-(6-{[5-methyl-3-(6-methylpyridin-3-yl)-1,2-oxazol-4-yl]methoxy}-1,2,3,4-tetrahydro-2,7-naphthyridine-2-carbonyl)pyrrolidin-2-one]
2.2 | Cc1ccc(-c2noc(C)c2COc2cc3c(nn2)CN(C(=O)NC2CC2)CC3)cn1 [Example 33, N-cyclopropyl-3-{[5-methyl-3-(6-methylpyridin-3-yl)-1,2-oxazol-4-yl]methoxy}-5H,6H,7H,8H-pyrido[3,4-c]pyridazine-7-carboxamide]
1.6 | CCC(=O)N1CCc2cc(OCc3c(C)nnn3-c3ccc(C(F)F)nc3)ncc2C1 [Example 56, 1-[6-({1-[6-(difluoromethyl)pyridin-3-yl]-4-methyl-1H-1,2,3-triazol-5-yl}methoxy)-3,4 dihydro-2,7-naphthyridin-2(1H)-yl]propan-1-one]
